Entries after “also recorded” stand apart in the source; their conditions may differ. Like-named read-outs stand apart in the source and are kept apart here.
Legend:
[1] = system: HEK293T Tau RD P301S FRET biosensors; test: P2-induced tau aggregation in Tau P301S FRET biosensors (microscopy, flow cytometry); assay type: cell-based
From the text: The tau biosensors were HEK293T cells, with stably expressed tau repeat domains with disease-associated mutation (P301S) fused to either CFP or YFP (HEK293T Tau RD P301S FRET biosensors) were transduced with pulled synaptosomal (P2) extracts from AD brains using lipofectamine 2000. Cultures treated with equal amount of empty liposomes were used as a control. […] Cells were imaged after 24 hrs using automated microscope imaging system (Lionheart FX) equipped with 20× objective and CFP-YFP FRET Image filter cube.
After sixty hours treatment, cells and cell medium were collected. Cells were prepared for flow cytometry and FRET signal was detected using LSRII flow cytometer (BD biosciences). Cells were back gated onto forward scatter versus side scatter to insure a single cell analysis, 5,000 cells were collected within the gate. FRET negative and FRET-positive cell populations were defined as previously described.

[2] = Pharmacokinetic / brain permeability study, LC-MS/MS of brain and plasma; assay type: in vivo, C57BL6 mice; details: C57BL/6J, mouse, mice, 100 mg/kg oral gavage
Description: (§1) Brain permeability and target engagement studies were conducted in C57BL/6J mice. […] Drug level evaluation in brain and plasma samples was performed by LC-MS/MS analysis. Brain tissue was homogenized and nSMase2 activity measured as described above.

nSMase2 = biological target: T1, nSMase2 (Mus musculus, UniProt Q9JJY3); test: Target engagement: nSMase activity in brain homogenates of treated mice; assay type: in vivo, C57BL6 mice; details: 100 mg/kg oral gavage, 4 hours
T1 construct: from tissue; host or cells: mouse brain (cortical homogenate)
T1 sequence (Q9JJY3 1-655): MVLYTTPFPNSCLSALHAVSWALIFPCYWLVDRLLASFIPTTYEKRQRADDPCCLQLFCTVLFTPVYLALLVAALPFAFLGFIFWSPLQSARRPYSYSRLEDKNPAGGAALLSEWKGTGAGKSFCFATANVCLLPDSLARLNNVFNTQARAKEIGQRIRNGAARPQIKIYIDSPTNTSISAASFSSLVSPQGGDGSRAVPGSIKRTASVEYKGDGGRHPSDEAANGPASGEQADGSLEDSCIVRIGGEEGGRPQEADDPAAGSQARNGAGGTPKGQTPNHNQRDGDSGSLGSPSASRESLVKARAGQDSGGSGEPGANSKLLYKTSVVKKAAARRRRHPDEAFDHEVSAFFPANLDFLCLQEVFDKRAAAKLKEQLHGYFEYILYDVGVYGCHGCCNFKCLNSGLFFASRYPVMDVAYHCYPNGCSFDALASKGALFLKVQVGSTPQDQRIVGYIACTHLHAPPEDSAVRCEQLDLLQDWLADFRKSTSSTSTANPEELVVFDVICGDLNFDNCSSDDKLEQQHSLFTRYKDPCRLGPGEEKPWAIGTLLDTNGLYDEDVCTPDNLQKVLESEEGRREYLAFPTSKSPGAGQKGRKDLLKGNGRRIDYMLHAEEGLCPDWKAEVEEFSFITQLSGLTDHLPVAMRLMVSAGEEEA
Description: Alternatively, mice were treated with the compounds by a parental route and after euthanization the brain is removed and homogenized using 100 mM Tris-HCl pH 7.5, 100 mM sucrose, 100 μM PMSF, 1× protease inhibitor cocktail, and diluted to 2× in reaction buffer prior to the assay and nSMase2 activity is measured. The reaction was started by adding 10 μL of the working solution (100 μM Amplex Red reagent containing 2 U/mL HRP, 0.2 U/mL choline oxidase, 8 U/mL of alkaline phosphatase, and 0.5 mM sphingomyelin) and the progression of the reaction was monitored at 540/590 nm (Ex/Em) for 2 h at 37° C. The activity of nSMase2 at 2 hrs was plotted as percentage of control using PrismGraphPad.
as §1

O=c1[nH]c(=S)[nH]c(-c2ccccc2)c1Cc1c(O)ccc2ccccc12 [cambinol]
FRET-positive tau aggregates, microscopy ([1]; 10 μM, imaged after 24 hrs, vs DMSO (FIG. 3A)): visibly decreased; also recorded: Decrease in the tau aggregation
FRET-positive signal (integrated FRET density), flow cytometry ([1]; 10 uM, sixty hours treatment (FIG. 3B)): significant decrease
concentration at 4 h ([2]; brain, read-out: level in brain): 135 ± 60.9 ng/g
concentration at 4 h ([2]; plasma, read-out: level in plasma): 8150 ± 2450 ng/mL
inhibition (decrease) of nSMase activity in brain/cortical homogenates vs vehicle (nSMase2): 26.8%
